Laboratory results published in patent publication US20250332300A1 (priority 2024, published 2025).
Read-outs that look alike come from different tables or passages of the source.

How the values were obtained:
[1] = type: physicochemical
Procedure: Radio-HPLC Analytical Method: Eluent A: Water+0.1% TFA; Eluent B: ACN+0.1% TFA; Column temperature: 25° C.; Flow: 1.0 mL/min; Column: […] Gradient: hold 10% B for 1 min, from 10 to 80% B in 8 min, hold 80% B for 2 min, from 80 to 15% B in 1 min. The initial radiochemical purity of [^68Ga]Ga-labeled compounds was analyzed by radio-HPLC and the stability in solution at 24° C. was evaluated 4 h after the end of synthesis by radio-HPLC.

[2] = biological target: human Herstatin (a soluble truncated HER2 protein) (Homo sapiens, UniProt P04626); assay: SPR selectivity over close protein homologs, Herstatin; type: binding; details: protein homolog immobilized on a CM5 chip
human EGFR = human EGFR (Homo sapiens, UniProt P00533); assay: SPR selectivity over close protein homologs, EGFR; type: binding; details: protein homolog immobilized on a CM5 chip
Chain of human EGFR (P00533 25-1210): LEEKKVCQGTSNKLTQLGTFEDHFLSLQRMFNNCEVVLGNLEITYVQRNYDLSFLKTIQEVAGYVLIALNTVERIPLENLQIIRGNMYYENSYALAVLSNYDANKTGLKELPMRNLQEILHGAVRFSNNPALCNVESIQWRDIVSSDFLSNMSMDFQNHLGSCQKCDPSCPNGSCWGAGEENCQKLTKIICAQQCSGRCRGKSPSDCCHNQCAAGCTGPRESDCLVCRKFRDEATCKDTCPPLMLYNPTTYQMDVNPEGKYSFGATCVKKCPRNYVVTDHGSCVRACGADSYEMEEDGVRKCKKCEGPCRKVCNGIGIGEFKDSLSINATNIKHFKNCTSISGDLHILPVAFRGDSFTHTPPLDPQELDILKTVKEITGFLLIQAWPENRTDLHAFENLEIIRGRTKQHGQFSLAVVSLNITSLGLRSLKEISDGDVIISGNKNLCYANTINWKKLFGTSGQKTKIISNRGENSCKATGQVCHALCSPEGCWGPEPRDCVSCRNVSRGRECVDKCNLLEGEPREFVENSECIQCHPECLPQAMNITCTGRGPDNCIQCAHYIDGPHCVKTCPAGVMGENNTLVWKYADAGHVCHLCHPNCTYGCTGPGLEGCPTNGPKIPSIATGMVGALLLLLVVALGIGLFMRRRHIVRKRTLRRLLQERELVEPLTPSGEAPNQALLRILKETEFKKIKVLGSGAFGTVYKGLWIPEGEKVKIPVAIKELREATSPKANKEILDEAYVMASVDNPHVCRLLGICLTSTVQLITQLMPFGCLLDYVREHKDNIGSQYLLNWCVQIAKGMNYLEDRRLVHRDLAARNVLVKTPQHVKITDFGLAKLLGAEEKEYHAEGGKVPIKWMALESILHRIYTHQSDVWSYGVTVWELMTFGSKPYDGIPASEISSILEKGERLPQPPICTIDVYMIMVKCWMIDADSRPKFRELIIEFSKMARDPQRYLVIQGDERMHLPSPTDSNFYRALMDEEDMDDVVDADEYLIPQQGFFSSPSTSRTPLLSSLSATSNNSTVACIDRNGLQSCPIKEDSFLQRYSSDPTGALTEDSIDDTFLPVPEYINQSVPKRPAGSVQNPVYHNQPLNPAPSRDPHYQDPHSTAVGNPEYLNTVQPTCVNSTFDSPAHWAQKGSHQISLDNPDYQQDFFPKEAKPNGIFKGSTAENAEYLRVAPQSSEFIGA

human HER3 = human HER3 (Homo sapiens, UniProt P21860); assay: SPR selectivity over close protein homologs, HER3; type: binding; details: protein homolog immobilized on a CM5 chip
Chain of human HER3 (P21860 20-1342): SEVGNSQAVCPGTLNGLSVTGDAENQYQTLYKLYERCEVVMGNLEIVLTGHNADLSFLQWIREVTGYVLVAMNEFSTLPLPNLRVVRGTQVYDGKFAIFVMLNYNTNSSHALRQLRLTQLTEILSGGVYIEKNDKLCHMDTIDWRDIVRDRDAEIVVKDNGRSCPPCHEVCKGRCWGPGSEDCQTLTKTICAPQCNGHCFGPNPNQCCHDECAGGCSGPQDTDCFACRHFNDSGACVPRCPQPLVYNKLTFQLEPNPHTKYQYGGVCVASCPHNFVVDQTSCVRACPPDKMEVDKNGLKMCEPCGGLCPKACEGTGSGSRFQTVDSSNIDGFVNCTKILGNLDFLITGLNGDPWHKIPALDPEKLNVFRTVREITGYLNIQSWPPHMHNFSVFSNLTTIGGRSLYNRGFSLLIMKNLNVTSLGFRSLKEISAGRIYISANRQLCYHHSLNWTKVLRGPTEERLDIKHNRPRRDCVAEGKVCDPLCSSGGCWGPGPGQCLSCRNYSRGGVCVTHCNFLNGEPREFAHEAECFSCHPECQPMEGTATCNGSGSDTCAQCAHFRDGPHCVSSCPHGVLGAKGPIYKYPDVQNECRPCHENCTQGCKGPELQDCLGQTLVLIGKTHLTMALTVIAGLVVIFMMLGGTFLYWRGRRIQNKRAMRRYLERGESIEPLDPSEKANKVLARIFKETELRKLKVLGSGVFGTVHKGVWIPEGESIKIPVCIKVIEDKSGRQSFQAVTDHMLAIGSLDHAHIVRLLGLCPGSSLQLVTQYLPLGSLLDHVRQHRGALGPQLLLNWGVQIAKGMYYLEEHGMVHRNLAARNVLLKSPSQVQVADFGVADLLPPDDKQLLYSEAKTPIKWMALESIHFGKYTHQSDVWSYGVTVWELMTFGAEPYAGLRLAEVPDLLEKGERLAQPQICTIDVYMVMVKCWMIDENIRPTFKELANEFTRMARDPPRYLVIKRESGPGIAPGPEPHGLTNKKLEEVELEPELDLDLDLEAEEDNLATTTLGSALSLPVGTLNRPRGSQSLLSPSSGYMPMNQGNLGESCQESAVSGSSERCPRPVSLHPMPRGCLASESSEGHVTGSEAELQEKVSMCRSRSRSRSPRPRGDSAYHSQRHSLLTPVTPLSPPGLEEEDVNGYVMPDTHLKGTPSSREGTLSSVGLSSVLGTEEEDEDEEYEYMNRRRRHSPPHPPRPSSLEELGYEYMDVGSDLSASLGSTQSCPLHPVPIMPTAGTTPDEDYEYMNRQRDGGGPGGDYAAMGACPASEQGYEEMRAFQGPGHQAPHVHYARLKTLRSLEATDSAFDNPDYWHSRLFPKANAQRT

human HER4 = human HER4 (Homo sapiens, UniProt Q15303); assay: SPR selectivity over close protein homologs, HER4; type: binding; details: protein homolog immobilized on a CM5 chip
Chain of human HER4 (Q15303 26-1308): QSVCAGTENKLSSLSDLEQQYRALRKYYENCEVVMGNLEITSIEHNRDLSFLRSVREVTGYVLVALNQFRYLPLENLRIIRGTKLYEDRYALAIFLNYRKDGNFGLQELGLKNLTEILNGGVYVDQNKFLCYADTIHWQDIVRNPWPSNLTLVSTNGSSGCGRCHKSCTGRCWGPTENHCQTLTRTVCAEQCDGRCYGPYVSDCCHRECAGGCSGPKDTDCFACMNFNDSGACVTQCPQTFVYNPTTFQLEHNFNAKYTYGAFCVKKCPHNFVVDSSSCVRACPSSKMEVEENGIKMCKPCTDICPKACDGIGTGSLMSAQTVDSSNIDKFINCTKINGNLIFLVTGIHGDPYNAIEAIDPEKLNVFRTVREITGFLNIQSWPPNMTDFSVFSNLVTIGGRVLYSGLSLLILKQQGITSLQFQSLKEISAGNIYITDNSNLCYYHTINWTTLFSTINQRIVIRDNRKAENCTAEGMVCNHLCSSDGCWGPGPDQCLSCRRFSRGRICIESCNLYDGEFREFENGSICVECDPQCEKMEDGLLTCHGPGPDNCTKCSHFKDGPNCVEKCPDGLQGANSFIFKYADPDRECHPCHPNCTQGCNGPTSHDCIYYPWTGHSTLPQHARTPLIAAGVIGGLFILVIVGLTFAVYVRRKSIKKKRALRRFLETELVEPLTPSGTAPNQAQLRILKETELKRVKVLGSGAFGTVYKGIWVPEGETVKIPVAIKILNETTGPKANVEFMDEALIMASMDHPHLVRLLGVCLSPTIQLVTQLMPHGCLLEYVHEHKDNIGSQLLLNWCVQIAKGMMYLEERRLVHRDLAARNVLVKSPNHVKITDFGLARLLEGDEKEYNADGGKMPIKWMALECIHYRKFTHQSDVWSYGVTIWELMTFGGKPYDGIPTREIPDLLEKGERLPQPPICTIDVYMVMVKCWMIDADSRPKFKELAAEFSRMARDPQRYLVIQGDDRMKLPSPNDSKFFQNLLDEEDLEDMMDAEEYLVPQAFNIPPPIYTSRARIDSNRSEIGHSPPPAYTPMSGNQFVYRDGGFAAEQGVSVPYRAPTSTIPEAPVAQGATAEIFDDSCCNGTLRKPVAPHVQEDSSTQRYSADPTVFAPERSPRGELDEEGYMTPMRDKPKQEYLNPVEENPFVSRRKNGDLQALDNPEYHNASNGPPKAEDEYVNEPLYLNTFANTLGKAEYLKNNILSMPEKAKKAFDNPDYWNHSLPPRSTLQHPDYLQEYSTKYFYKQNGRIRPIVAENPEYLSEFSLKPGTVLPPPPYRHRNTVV

human HER2 (23-652) [3] = biological target: T1, human HER2 (23-652) (Homo sapiens, UniProt P04626); assay: Surface plasmon resonance (SPR) for assessment of peptide affinity, human HER2; type: binding; set-up: towards human HER2 (23-652) and mouse HER2 (23-653); made in house; details: SPR, human HER2 extracellular domain, 25° C., 1:1 binding model; read-out: huHER2-SPR-ONC KD
How it was run: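 Binding kinetics fitted from sensorgrams with 280 s peptide association then 3000 s dissociation (30 uL/min), using HER2 (23-652) either directly immobilized (SA/CM5) or anti-Fc-captured; 3 M magnesium chloride used for regeneration.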

mouse HER2 (23-653) [4] = biological target: T2, mouse HER2 (23-653) (Mus musculus, UniProt P70424); assay: Surface plasmon resonance (SPR) for assessment of peptide affinity, mouse HER2; type: binding; set-up: mouse HER2 (23-653) using a Cy5 labeled peptide as a probe; made in house; details: SPR, mouse HER2 extracellular domain, 25° C., 1:1 binding model; read-out: moHER2-SPR-ONC KD
Description: Each protein was immobilized either onto a SA sensorchip (Cytiva, BR-1005-31) or CM5 sensorchip (Cytiva, BR-1005-30) to a density of 800-2000 RU.
Target sequence in this assay (P70424 23-653): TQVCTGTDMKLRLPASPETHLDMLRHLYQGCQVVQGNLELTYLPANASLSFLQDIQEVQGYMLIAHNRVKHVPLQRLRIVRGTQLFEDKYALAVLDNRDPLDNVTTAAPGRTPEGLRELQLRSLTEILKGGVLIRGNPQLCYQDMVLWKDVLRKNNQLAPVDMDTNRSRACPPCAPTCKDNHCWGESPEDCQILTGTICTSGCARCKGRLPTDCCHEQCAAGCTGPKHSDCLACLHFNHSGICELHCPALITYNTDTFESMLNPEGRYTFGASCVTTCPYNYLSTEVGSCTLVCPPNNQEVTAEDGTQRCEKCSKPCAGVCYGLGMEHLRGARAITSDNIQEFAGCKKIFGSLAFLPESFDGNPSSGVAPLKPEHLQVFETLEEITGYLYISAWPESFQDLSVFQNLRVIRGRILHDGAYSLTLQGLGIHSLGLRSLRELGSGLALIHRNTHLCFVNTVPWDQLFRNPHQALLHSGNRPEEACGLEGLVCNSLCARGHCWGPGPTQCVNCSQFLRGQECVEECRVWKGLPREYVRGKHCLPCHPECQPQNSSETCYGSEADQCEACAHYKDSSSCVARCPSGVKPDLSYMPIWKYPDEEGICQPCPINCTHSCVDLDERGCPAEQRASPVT

human HER2 (23-652) [5] = biological target: T1, human HER2 (23-652); assay: TR-FRET competition assay for peptide potency, human HER2; type: binding; set-up: towards human HER2 (23-652) and mouse HER2 (23-653); made in house; host or cells: mammalian cells; details: read-out: huHER2 TR-FRET IC50
mouse HER2 (23-653) [6] = biological target: T2, mouse HER2 (23-653); assay: TR-FRET competition assay for peptide potency, mouse HER2; type: binding; set-up: mouse HER2 (23-653) using a Cy5 labeled peptide as a probe; made in house; host or cells: mammalian cells; details: TR-FRET competition with Cy5 labeled peptide probe, 0.1 nM mouse HER2, 24 h incubation; read-out: moHER2 TR-FRET IC50
[7] = type: physicochemical; remark: listed apart in the source
Procedure: Radio-HPLC Analytical Method: Eluent A: Water+0.1% TFA; Eluent B: ACN+0.1% TFA; Column temperature: 25° C.; Flow: 1.0 mL/min; Column: […] Gradient: hold 10% B for 1 min, from 10 to 80% B in 8 min, hold 80% B for 2 min, from 80 to 15% B in 1 min. Radio-iTLC Analytical Method: […] For Lu-177 and Ga-68, the radiotracer-spotted iTLC plates were directly read in a radio-TLC scanner after developing in a sodium citrate 0.1M (pH 4.6) mobile phase. Rf([^177Lu/^68Ga]Lu/Ga-labeled compounds)=0.0-0.5 and Rf (unchelated ^177Lu^3+/^68Ga^3+)=0.5-1.0. The initial radiochemical purity of the [^177Lu]Lu-labeled compounds was analyzed by […] and […] and the stability in solution at 24° C. was evaluated after the end of synthesis by radio-HPLC.

[8] = amide bond, 30-membered ring, PyAOP/DIEA, DMF, resin, […], 50.0 °C, with chain assembly

Molecule	Kd [2]	Kd (human EGFR)	Kd (human HER3)	Kd (human HER4)	Kd (human HER2 (23-652) [3])	Kd (mouse HER2 (23-653) [4])	IC50 (human HER2 (23-652) [5])	IC50 (mouse HER2 (23-653) [6])	ring closure, yield after HPLC [8]	other results
CC(=O)NCCCC[C@H]1C(=O)N[C@@H](Cc2c[nH]c3ccc(O)cc23)C(=O)N[C@@H](Cc2c[nH]c3ccccc23)C(=O)N[C@@H](C2CC2)C(=O)N(C)[C@H](C(=O)N(C)[C@@H](Cc2ccc(F)cc2)C(=O)N[C@@H](CCCCNC(=O)CN2CCN(CC(=O)O)CCN(CC(=O)O)CCN(CC(=O)O)CC2)C(N)=O)CNC(=O)CCC[C@H](NC(C)=O)C(=O)N[C@@H](Cc2ccc(O)cc2)C(=O)N[C@@H](CO)C(=O)N(C)[C@@H](CCc2ccccc2)C(=O)N1C [Example I2, Example B1 labelled with ^68Ga, metal not drawn]	–	–	–	–	–	–	–	–	–	Radiochemical purity by radio-HPLC, stability in solution, 4 h [1]: 97.2%
COCCOCCOCCOCCOCCOCCOCCOCCOCCOCCOCCOCCC(=O)N[C@H]1CCCC(=O)NC[C@@H](C(=O)N(C)[C@@H](Cc2ccc(F)cc2)C(=O)N[C@@H](CCCCNC(=O)CN2CCN(CC(=O)O)CCN(CC(=O)O)CCN(CC(=O)O)CC2)C(N)=O)N(C)C(=O)[C@H](C2CC2)NC(=O)[C@H](Cc2c[nH]c3ccccc23)NC(=O)[C@H](Cc2c[nH]c3ccc(O)cc23)NC(=O)[C@H](CCCCNC(C)=O)N(C)C(=O)[C@H](CCc2ccccc2)N(C)C(=O)[C@H](CO)NC(=O)[C@H](Cc2ccc(O)cc2)NC1=O [Example B2]	> 6 µM	> 6 µM	> 6 µM	> 6 µM	< 0.0001 µM	0.0001 µM	< 0.0001 µM	0.0002 µM	–	–
CC(=O)NCCCC[C@H]1C(=O)N[C@@H](Cc2c[nH]c3ccc(O)cc23)C(=O)N[C@@H](Cc2c[nH]c3ccccc23)C(=O)N[C@@H](C2CC2)C(=O)N(C)[C@H](C(=O)N(C)[C@@H](Cc2ccc(F)cc2)C(=O)N[C@@H](CCCCNC(=O)CN2CCN(CC(=O)O)CCN(CC(=O)O)CCN(CC(=O)O)CC2)C(N)=O)CNC(=O)CCC[C@H](NC(C)=O)C(=O)N[C@H](Cc2ccc(O)cc2)C(=O)N[C@H](CO)C(=O)N(C)[C@@H](CCc2ccccc2)C(=O)N1C [Example H4, Example B4 labelled with ^177Lu, metal not drawn]	–	–	–	–	–	–	–	–	–	Radiochemical purity by radio-HPLC, stability in solution, 5 h (%) [7]: 98.6%; Radiochemical purity by radio-HPLC, stability in solution, 24 h (%) [7]: 98.2%; Radiochemical purity by radio-HPLC, stability in solution, 48 h (%) [7]: 97.6%; Radiochemical purity by radio-HPLC, stability in solution, 72 h (%) [7]: 97.8%
CC(=O)NCCCC[C@H]1C(=O)N[C@@H](Cc2c[nH]c3ccc(O)cc23)C(=O)N[C@@H](Cc2c[nH]c3ccccc23)C(=O)N[C@@H](C2CC2)C(=O)N(C)[C@H](C(=O)N(C)[C@@H](Cc2ccc(F)cc2)C(=O)N[C@@H](CCCCNC(=O)CN2CCN(CC(=O)O)CCN(CC(=O)O)CCN(CC(=O)O)CC2)C(N)=O)CNC(=O)CCC[C@H](NC(C)=O)C(=O)N[C@H](Cc2ccc(O)cc2)C(=O)N[C@H](CO)C(=O)N(C)[C@@H](CCc2ccccc2)C(=O)N1C [Example B4]	> 6 µM	> 6 µM	> 6 µM	> 6 µM	> 6 µM	> 6 µM	> 1 µM	> 1 µM	–	–
(3R,6S,9S,12S,15S,18S,21S,24S,27S)-9-((1H-indol-3-yl)methyl)-27-amino-N—((S)-1-amino-3-(4-fluorophenyl)-1-oxopropan-2-yl)-6-cyclopropyl-12-((5-hydroxy-1H-indol-3-yl)methyl)-24-(4-hydroxybenzyl)-15,21-bis(hydroxymethyl)-N,4,16,19-tetramethyl-5,8,11,14,17,20,23,26,30-nonaoxo-18-phenethyl-1-thia-4,7,10,13,16,19,22,25,29-nonaazacyclohentriacontane-3-carboxamide TFA salt	–	–	–	–	–	–	–	–	–	ring closure, yield after HPLC (thioether bond, 31-membered ring, DIEA, then pyrrolidine, ACN/water, […], with chain assembly): 1%
Fmoc-hGlu-Tyr-Ser-MehPhe-MeLys(Ac)-Trp(5-OH)-Trp-Gly(cPr)-MeDap-MePhe(4-F)-Lys(N3)-NH2?	–	–	–	–	–	–	–	–	–	ring closure, yield after HPLC (the molecule shown is the open-chain precursor, amide bond, 31-membered ring, HATU/2,6-lutidine, DMF/DCM 1:10, 0.76 mM): 64%
2-(4-(((S)-5-((S)-2-((3S,6S,9S,12S,15S,18S,21S,24S,27S)-9-((1H-indol-3-yl)methyl)-15-(4-acetamidobutyl)-27-(5,39-dioxo-43-((3aS,4S,6aR)-2-oxohexahydro-1H-thieno[3,4-d]imidazol-4-yl)-8,11,14,17,20,23,26,29,32,35-decaoxa-4,38-diazatritetracontanamido)-12-((5-hydroxy-1H-indol-3-yl)methyl)-24-(4-hydroxybenzyl)-6-((S)-1-hydroxyethyl)-21-(hydroxymethyl)-N,4,16,19-tetramethyl-5,8,11,14,17,20,23,26,30-nonaoxo-18-phenethyl-1,4,7,10,13,16,19,22,25-nonaazacyclotriacontane-3-carboxamido)-3-(4-fluorophenyl)propanamido)-6-amino-6-oxohexyl)carbamoyl)piperazin-1-yl) acetic acid TFA salt	–	–	–	–	–	–	–	–	0.5%	–
2-(4-(((11S,48S)-48-((S)-2-((3S,6S,9S,12S,15S,18S,21S,24S,27S)-9-((1H-indol-3-yl)methyl)-27-acetamido-15-(4-acetamidobutyl)-12-((5-hydroxy-1H-indol-3-yl)methyl)-24-(4-hydroxybenzyl)-6-((S)-1-hydroxyethyl)-21-(hydroxymethyl)-N,4,16,19-tetramethyl-5,8,11,14,17,20,23,26,30-nonaoxo-18-phenethyl-1,4,7,10,13,16,19,22,25-nonaazacyclotriacontane-3-carboxamido)-3-(4-fluorophenyl)propanamido)-11-carbamoyl-5,13,47-trioxo-1-((3aS,4S,6aR)-2-oxohexahydro-1H-thieno[3,4-d]imidazol-4-yl)-16,19,22,25,28,31,34,37,40,43-decaoxa-6,12,46-triazadopentacontan-52-yl) carbamoyl) piperazin-1-yl) acetic acid TFA salt	–	–	–	–	–	–	–	–	1.9%	–
CC(=O)NCCCC[C@H]1C(=O)N[C@@H](Cc2c[nH]c3ccc(O)cc23)C(=O)N[C@@H](Cc2c[nH]c3ccccc23)C(=O)N[C@@H](C2CC2)C(=O)N(C)[C@H](C(=O)N(C)[C@@H](Cc2ccc(F)cc2)C(=O)N[C@@H](CCCCNC(=O)CN2CCN(CC(=O)O)CCN(CC(=O)O)CCN(CC(=O)O)CC2)C(N)=O)CNC(=O)CCC[C@H](NC(C)=O)C(=O)N[C@@H](Cc2ccc(O)cc2)C(=O)N[C@@H](CO)C(=O)N(C)[C@@H](CCc2ccccc2)C(=O)N1C [Example B1]	> 6 µM	> 6 µM	> 6 µM	> 6 µM	< 0.0001 µM	< 0.0001 µM	< 0.0001 µM	< 0.0001 µM	–	–
2-((1E,3E)-5-((E)-1-(6-(((S)-5-((S)-2-((3S,6S,9S,12S,15S,18S,21S,24S,27S)-9-((1H-indol-3-yl)methyl)-27-acetamido-15-(4-acetamidobutyl)-12-((5-hydroxy-1H-indol-3-yl)methyl)-24-(4-hydroxybenzyl)-6-((S)-1-hydroxyethyl)-21-(hydroxymethyl)-N,4,16,19-tetramethyl-5,8,11,14,17,20,23,26,30-nonaoxo-18-phenethyl-1,4,7,10,13,16,19,22,25-nonaazacyclotriacontane-3-carboxamido)-3-(4-fluorophenyl)propanamido)-6-amino-6-oxohexyl)amino)-6-oxohexyl)-3,3-dimethyl-5-sulfoindolin-2-ylidene)penta-1,3-dien-1-yl)-1-ethyl-3,3-dimethyl-3H-indol-1-ium-5-sulfonate	–	–	–	–	–	–	–	–	1.7%	–
